We go through 1 compound from patent US8802082B2, “Rhodamine derivatives for photodynamic diagnosis and treatment” (Université de Montreal, priority 1999, dated 2014).

Holding throughout (assay type): cell-based, human
Data set [1] relates to cells from subject A, activated against B. Nature of the data set: Allogeneic T cell activation (one-way mixed lymphocyte culture), PDT, then proliferation assay. As to conditions: TH9402 PDT, 5-day proliferation assay. How it is done:
Suspensions of cells were then incubated with 10 μM TH9402 for 40 minutes at 37° C. Cells were treated at 1×10^6 cells/mL in X-vivo-15 medium without phenol red (BioWhittaker, Walkersville, Md., USA) supplemented with 2,5% FBS. At the end of the incubation period, cells were spun down and the cell pellet resuspended in the X-vivo culture medium in the absence of dye, supplemented with 10% FBS. Cells were then placed in T-flasks (Corning, Cambridge, Mass., USA) for 90 minutes at 37° C. Following this second incubation in medium without dye, cells were exposed at 3 mm thickness to desired light energy, usually 5 joules/cm^2 using a previously described light delivery device (U.S. Pat. No. 5,798,523). Light energy was delivered using a fluorescent scanning lamp device with maximum wavelength around 512 nm.
The latter cells were serially diluted in order to obtain effector (treated cells) to target ratios ranging from 2:1 to 1:4 (4×10^4 treated effector cells/well) and incubated at 37° C. for 5 days. Eighteen hours prior to harvesting, 1 μCi of ^3H-thymidine was added. Cells were harvested using a PHD cell harvester (Cambridge Technology, Boston, Mass., USA). Radioactivity in the cell harvest was counted using a liquid scintillation counter (Beckman, Chicago, Ill., USA).
Another approach was used in this study to activate cells against specific target antigens. […]

The test system of data set [2] is activated T lymphocytes (CD25+, CD4+ and CD8+). Nature of the data set: Phenotypic analysis of residual T lymphocytes after phototherapy (CD25, CD4, CD8 flow cytometry). As to conditions: 10 μM TH9402; 2.5, 5 and 10 joules/cm^2; 48 to 72 hours culture; untreated 14%. As to the method: In order to determine if the abrogation of reactivity toward subject B obtained after PDT correlated with the loss of activated T cells, the proportion of activated cells was determined in samples exposed or not to PDT. Activated cells can be discriminated from resting T lymphocytes by their enhanced expression of CD25, which can be detected with a monoclonal antibody specific for CD25, the inducible a chain of the IL-2 receptor. Briefly, after activation of T cells in mixed lymphocyte reaction, as described above, activated T lymphocytes were incubated in X-vivo 15 medium (BioWhittaker) supplemented with 2.5% human AB serum and 10 μM TH9402 for 40 min. These cells were than washed twice with X-vivo-15 medium supplemented with 10% AB human serum. At 110 min after the end of the incubation period, cells were exposed to doses of light ranging from 2.5 to 10 joules/cm^2 of using the above described light delivery device (U.S. Pat. No. 5,798,523). Light energy was delivered using a fluorescent scanning device with maximum wavelength at 512 nm. After treatment, cells were cultured for 48 to 72 hours in X-vivo-15 medium supplemented with 15% of human AB serum. After the latter incubation period, cells were counted and their immunophenotypes analyzed by dual-color flow cytometry to determine the proportion of activated T lymphocytes. […]

Data set [3] concerns non-lymphoid hematopoietic progenitors (CFU-GM, BFU-E, CFU-GEMM). Nature of the data set: Clonogenic assay of hematopoietic progenitors in methylcellulose after PDT. As to conditions: same conditions of PDT as for B cells. How it is done: To evaluate the potential of PDT with TH9402 to eliminate other immune cell populations, normal human B cells were used as targets. Mononuclear cells from normal donors were obtained by leukopheresis, and resuspended at 20 million cells per ml during the whole PDT process. Cells were centrifuged and resuspended in pre-warmed (37° C.) X-Vivo-15 medium supplemented with 2.5% FCS and 10 U/ml heparin, with 5 μM TH9402. After 40 minutes of incubation at 37° C., cells were washed and resuspended in a X-Vivo-15 medium and 10% FCS with 10 U/ml heparin (medium free of TH9402) for an efflux period of 50 minutes before exposure to light energy (10 to 30 Joules/cm^2). Cells underwent light exposure at 20 million cells per ml and at a thickness of 2 cm.
To verify that the treatment preserved normal hematopoetic progenitors, we have used a clonogenic assay to measure the amount of hematopoetic clonogenic precursors present in the same samples. […]
Normal human mononuclear cells were obtained and subjected to various PDP conditions to determine the efficacy of eradication of B cells, specificity and safety of the procedure. […] In contrast, when these cells were evaluated for the elimination of non-lymphoid hematopoietic progenitors, usually less than 50% (half of a logarithm) of these progenitors were eliminated by the same conditions of PDT (FIG. 7B). […]

`Br.COC(=O)c1ccccc1-c1c2ccc(=N)c(Br)c-2oc2c(Br)c(N)ccc12` [TH9402, 4,5-dibromorhodamine 123 (2-(4,5-dibromo-6-amino-3-imino-3H-xanthen-9-yl)-benzoic acid methyl ester) hydrobromide]: in data set [1], the “proliferation when exposed to C cells (mismatched unrelated)” value is “retained the capacity to proliferate” and the “proliferation when reexposed to cells from B” value is “did not proliferate”. Further, the “proportion of activated T lymphocytes, both CD4+ and CD8+, after PDT” value in data set [2] is given as “below 1%”. Further, the “non-lymphoid hematopoietic progenitors eliminated” value in data set [3] is “less than 50%”.
